Results published in publication PMC3793924, “Targeting Androgen Receptor/Src Complex Impairs the Aggressive Phenotype of Human Fibrosarcoma Cells” (PLoS ONE, 2013).

Columns and labels:
NIH3T3 cells = assay: BrdU incorporation in NIH3T3 fibroblasts; assay type: cell-based, mouse; conditions: quiescent NIH3T3 cells, 18 h; EGF 100 ng/ml; R1881 10 nM
Method: NIH3T3 cells were used. In A, cells were transfected with 3416 or 3424 ARE-Luc constructs with or without hAR-expressing plasmid and then made quiescent as reported in Methods. Cells were left unstimulated or stimulated for 18 h with 10 nM R1881. Luciferase activity was assayed, normalized using beta-gal as an internal control, and expressed as fold induction. Three independent experiments were performed in triplicate. Means and SEM are shown; n represents the number of experiments. […] After in vivo labeling with BrdU (100 μM), BrdU incorporation was analyzed by IF and expressed as % of total cells. Several independent experiments were performed in duplicate and data derived from at least 700 scored cells for each coverslip. Mean and SEM are shown. n represents the number of experiments. […] Quiescent NIH3T3 fibroblasts were used. In C, cells on coverslips were left unstimulated or stimulated for 18 h with the indicated compounds. […] After in vivo pulse with BrdU (100 μM), BrdU incorporation was analyzed by IF and expressed as % of total cells. Several independent experiments were performed in duplicate and the results were derived from at least 500 scored cells for each coverslip. Mean and SEM are shown. n represents the number of experiments. […] The Western blot of MCF-7 cell lysate with the anti-tubulin or the anti-EGFR antibody is shown for comparison. In D, cells were left untreated or treated for 6 h with the indicated compounds. […] Cells were allowed to migrate in collagen pre-coated Trans-well filters. Migrated cells were stained and counted as reported in Methods. Results were derived from several independent experiments, each performed in duplicate. Data are expressed as relative increase. Mean and SEM are shown. n represents the number of experiments. […] (PPTX) Click here for additional data file.

HT1080 cells [1] = assay: Trans-well migration/invasiveness of HT1080 cells; assay type: cell-based, human; conditions: HT1080 cells, 10 nM R1881, 6 h, collagen pre-coated Trans-well filters
HT1080 cells [2] = assay: BrdU incorporation (DNA synthesis) in quiescent HT1080 cells; assay type: cell-based, human; conditions: 18 h, R1881 and DHT 10 nM, EGF 100 ng/ml
Method: Human fibrosarcoma HT1080 cells were used. In A, quiescent cells on coverslips were left un-stimulated or stimulated for 18 h with the indicated compounds. […] After in vivo pulse with BrdU (100 μM; Sigma), BrdU incorporation was analyzed by IF and expressed as % of total nuclei. Several independent experiments were performed in duplicate and the results were derived from at least 400 scored cells for each coverslip. Mean and SEM are shown. n represents the number of experiments. […] In B, xenografts were established in nude male mice as described in Methods. On alternate days, animals were intra-peritoneally injected with vehicle alone (vehicle), or the pure androgen antagonist Casodex (Cx: 0.1 μg/mice; 4µg/Kg body weight), or DHT (DHT: 0,1 μg/mice; 3 μg/Kg body weight) alone. Volumes of HT1080 cell xenografts were measured at the indicated times in two dimensions by a caliper and expressed as tumor mass (mm^3). Mean and SEM are shown. n represents the number of experiments.
Quiescent HT1080 cells were used. […] Casodex (at 10 μM) was used for comparison with the S1 peptide. Upper section in A, Western blot of HT1080 cell lysates with anti-EGFR antibody. […] In B, lysates were immune-precipitated with the anti-Src MAb and Src activity in immune complexes was assayed using acidified enolase, as a substrate. In C, cells on coverslips were left untreated or treated for 18 h with the indicated compounds. After in vivo pulse with BrdU (100 μM), BrdU incorporation was analyzed by IF and expressed as % of total nuclei. Several independent experiments were performed in duplicate and the results were obtained from at least 500 scored cells for each coverslip. Mean and SEM are shown. n represents the number of experiments.

HT1080 cell xenografts = HT1080 cell xenografts in nude male mice, tumor mass; assay type: in vivo; conditions: i.p. on alternate days for 4 weeks, Casodex 0.1 μg/mice (4 µg/Kg), DHT 0,1 μg/mice (3 μg/Kg), six animals per group
Method: Figure 1 Casodex inhibits the EGF-triggered DNA synthesis in human fibrosarcoma HT1080 cells and reduces the growth of HT1080 xenografts. Human fibrosarcoma HT1080 cells were used. In A, quiescent cells on coverslips were left un-stimulated or stimulated for 18 h with the indicated compounds. […] After in vivo pulse with BrdU (100 μM; Sigma), BrdU incorporation was analyzed by IF and expressed as % of total nuclei. Several independent experiments were performed in duplicate and the results were derived from at least 400 scored cells for each coverslip. Mean and SEM are shown. n represents the number of experiments. (**) p value< 0,001. […] In B, xenografts were established in nude male mice as described in Methods. […] Volumes of HT1080 cell xenografts were measured at the indicated times in two dimensions by a caliper and expressed as tumor mass (mm^3). […]
HT1080 cells in 50% (v/v) Matrigel solution in phosphate-buffered saline (PBS; pH 7.4) were subcutaneously injected in the dorsal posterior region at 2.5 x 10^6 cells/male athymic mice (CD mice, Charles-River Italia) without hormone priming. […] The tumor volumes of HT1080 cell xenografts were measured at indicated intervals in two dimensions by a caliper and expressed as tumor mass (mm^3). This is calculated according to the formula: a^2 × b × 0.5, where a is the width and b is the length of the tumor. […]

C[C@]1(O)CC[C@H]2[C@@H]3CCC4=CC(=O)CCC4=C3C=C[C@@]21C [R1881]
BrdU incorporation (DNA synthesis) upon stimulation with the compound alone (NIH3T3 cells): does not induce DNA synthesis | Cell motility upon androgen challenge (Trans-well) (HT1080 cells [1]): robustly increases cell motility | BrdU incorporation (DNA synthesis) upon stimulation with the compound alone (HT1080 cells [2]): unable to mediate DNA synthesis

C[C@]12CCC(=O)C[C@@H]1CC[C@@H]1[C@@H]2CC[C@]2(C)[C@@H](O)CC[C@@H]12 [DHT]
Growth of HT1080 xenografts (tumor mass) (HT1080 cell xenografts): slightly affected this increase | BrdU incorporation (DNA synthesis) upon stimulation with the compound alone (HT1080 cells [2]): unable to mediate DNA synthesis
